Results from PubChem BioAssay AID1963844 (Molecular Pharmacology Branch, DTP, NCI, 2024).

Test system: 422866-222-R5-J1-PDC complex spheroid viability
Experiment: Anticancer human tumor 422866-222-R5-J1-PDC patient-derived pancreatic adenocarcinoma cell line growth inhibition [POLQ]
Conditions: for IC50: curve of first compound; for viability, T/C: stronger effect = lower value
How it was run: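 PDC + HUVEC + MSC complex spheroids; POLQ inhibitors ± partner drugs; top conc. at/near clinical Cmax, else 10 microM (SN-38 1 microM), half-log dilutions; 37 degrees C, 5% CO2.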

[1] = second compound 0.0316 µM, first compound 0.0316 µM
[2] = second compound 0.0316 µM, first compound 0.1 µM
[3] = second compound 0.0316 µM, first compound 0.316 µM
[4] = second compound 0.0316 µM, first compound 1 µM
[5] = second compound 0.1 µM, first compound 0.0316 µM
[6] = second compound 0.1 µM, first compound 0.1 µM
[7] = second compound 0.1 µM, first compound 0.316 µM
[8] = second compound 0.1 µM, first compound 1 µM
[9] = second compound 0.316 µM, first compound 0.0316 µM
[10] = second compound 0.316 µM, first compound 0.1 µM
[11] = second compound 0.316 µM, first compound 0.316 µM
[12] = second compound 0.316 µM, first compound 1 µM
[13] = second compound 1 µM, first compound 0.0316 µM
[14] = second compound 1 µM, first compound 0.1 µM
[15] = second compound 1 µM, first compound 0.316 µM
[16] = second compound 1 µM, first compound 1 µM
[17] = second compound 3.16 µM, first compound 0.0316 µM
[18] = second compound 3.16 µM, first compound 0.1 µM
[19] = second compound 3.16 µM, first compound 0.316 µM
[20] = second compound 3.16 µM, first compound 1 µM
[21] = second compound 10 µM, first compound 0.0316 µM
[22] = second compound 10 µM, first compound 0.1 µM
[23] = second compound 10 µM, first compound 0.316 µM
[24] = second compound 10 µM, first compound 1 µM
[25] = second compound 0.0316 µM, first compound 3.16 µM
[26] = second compound 0.0316 µM, first compound 10 µM
[27] = second compound 0.1 µM, first compound 3.16 µM
[28] = second compound 0.1 µM, first compound 10 µM
[29] = second compound 0.316 µM, first compound 3.16 µM
[30] = second compound 0.316 µM, first compound 10 µM
[31] = second compound 1 µM, first compound 3.16 µM
[32] = second compound 1 µM, first compound 10 µM
[33] = second compound 3.16 µM, first compound 3.16 µM
[34] = second compound 3.16 µM, first compound 10 µM
[35] = second compound 10 µM, first compound 3.16 µM
[36] = second compound 10 µM, first compound 10 µM
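Also: spheroids exposed to compounds for one week before readout.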
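For viability, T/C in this document: percent of DMSO vehicle wells luminescence so 100% = untreated viability.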

## CCc1c2c(nc3ccc(O)cc13)-c1cc3c(c(=O)n1C2)COC(=O)[C@]3(O)CC + Nc1ccc(C#CCN(C(=O)Cc2ncc(C(F)(F)F)cc2C(F)(F)F)c2ccc(F)cc2)nn1
Second compound 0.0316 µM
  IC50: < 0.00316 µM
Second compound 0.1 µM
  IC50: < 0.00316 µM
Second compound 0.316 µM
  IC50: < 0.00316 µM
Second compound 1 µM
  IC50: < 0.00316 µM
Second compound 3.16 µM
  IC50: < 0.00316 µM
Second compound 10 µM
  IC50: < 0.00316 µM
Second compound 0.0316 µM, first compound 0.00316 µM
  viability, T/C: 40%
Second compound 0.0316 µM, first compound 0.01 µM
  viability, T/C: 32.4%
[1]
  viability, T/C: 33.4%
[2]
  viability, T/C: 33%
[3]
  viability, T/C: 35%
[4]
  viability, T/C: 16.2%
Second compound 0.1 µM, first compound 0.00316 µM
  viability, T/C: 39.4%
Second compound 0.1 µM, first compound 0.01 µM
  viability, T/C: 37.8%
[5]
  viability, T/C: 35%
[6]
  viability, T/C: 32.4%
[7]
  viability, T/C: 32.8%
[8]
  viability, T/C: 20.6%
Second compound 0.316 µM, first compound 0.00316 µM
  viability, T/C: 35.8%
Second compound 0.316 µM, first compound 0.01 µM
  viability, T/C: 38%
[9]
  viability, T/C: 34.8%
[10]
  viability, T/C: 33.3%
[11]
  viability, T/C: 33%
[12]
  viability, T/C: 16.9%
Second compound 1 µM, first compound 0.00316 µM
  viability, T/C: 38.4%
Second compound 1 µM, first compound 0.01 µM
  viability, T/C: 32.3%
[13]
  viability, T/C: 32.7%
[14]
  viability, T/C: 31%
[15]
  viability, T/C: 30.5%
[16]
  viability, T/C: 21.7%
Second compound 3.16 µM, first compound 0.00316 µM
  viability, T/C: 36.2%
Second compound 3.16 µM, first compound 0.01 µM
  viability, T/C: 31.6%
[17]
  viability, T/C: 29.4%
[18]
  viability, T/C: 32.7%
[19]
  viability, T/C: 39.1%
[20]
  viability, T/C: 23.1%
Second compound 10 µM, first compound 0.00316 µM
  viability, T/C: 38.6%
Second compound 10 µM, first compound 0.01 µM
  viability, T/C: 35%
[21]
  viability, T/C: 36.9%
[22]
  viability, T/C: 28.7%
[23]
  viability, T/C: 31.2%
[24]
  viability, T/C: 18.6%

## COc1cc(C2c3cc4c(cc3C(OC3OC5COC(C)OC5C(O)C3O)C3COC(=O)C23)OCO4)cc(OC)c1O (stereo not drawn) + Nc1ccc(C#CCN(C(=O)Cc2ncc(C(F)(F)F)cc2C(F)(F)F)c2ccc(F)cc2)nn1
Second compound 0.0316 µM
  IC50: 0.779 µM
Second compound 0.1 µM
  IC50: 0.906 µM
Second compound 0.316 µM
  IC50: 0.555 µM
Second compound 1 µM
  IC50: 0.64 µM
Second compound 3.16 µM
  IC50: 0.367 µM
Second compound 10 µM
  IC50: 0.534 µM
[1]
  viability, T/C: 90.9%
[2]
  viability, T/C: 97.1%
[3]
  viability, T/C: 62.7%
[4]
  viability, T/C: 49.6%
[25]
  viability, T/C: 33.5%
[26]
  viability, T/C: 30.6%
[5]
  viability, T/C: 110%
[6]
  viability, T/C: 90.1%
[7]
  viability, T/C: 76.2%
[8]
  viability, T/C: 46.4%
[27]
  viability, T/C: 31.2%
[28]
  viability, T/C: 28.8%
[9]
  viability, T/C: 123%
[10]
  viability, T/C: 92.1%
[11]
  viability, T/C: 55.5%
[12]
  viability, T/C: 47.1%
[29]
  viability, T/C: 29.2%
[30]
  viability, T/C: 36.9%
[13]
  viability, T/C: 94.3%
[14]
  viability, T/C: 100%
[15]
  viability, T/C: 68.5%
[16]
  viability, T/C: 40.6%
[31]
  viability, T/C: 32.1%
[32]
  viability, T/C: 35.5%
[17]
  viability, T/C: 93.3%
[18]
  viability, T/C: 81.4%
[19]
  viability, T/C: 48.2%
[20]
  viability, T/C: 47.1%
[33]
  viability, T/C: 37.6%
[34]
  viability, T/C: 31.6%
[21]
  viability, T/C: 103%
[22]
  viability, T/C: 88.9%
[23]
  viability, T/C: 55.4%
[24]
  viability, T/C: 43.6%
[35]
  viability, T/C: 38.4%
[36]
  viability, T/C: 31.6%

## Nc1ccn(C2OC(CO)C(O)C2(F)F)c(=O)n1 (stereo not drawn) + Nc1ccc(C#CCN(C(=O)Cc2ncc(C(F)(F)F)cc2C(F)(F)F)c2ccc(F)cc2)nn1
Second compound 0.0316 µM
  IC50: < 0.0316 µM
Second compound 0.1 µM
  IC50: 0.0552 µM
Second compound 0.316 µM
  IC50: 0.0726 µM
Second compound 1 µM
  IC50: 0.0715 µM
Second compound 3.16 µM
  IC50: 0.118 µM
Second compound 10 µM
  IC50: 0.539 µM
[1]
  viability, T/C: 57.9%
[2]
  viability, T/C: 42.5%
[3]
  viability, T/C: 28.7%
[4]
  viability, T/C: 38.4%
[25]
  viability, T/C: 36.9%
[26]
  viability, T/C: 39.2%
[5]
  viability, T/C: 62.2%
[6]
  viability, T/C: 37.7%
[7]
  viability, T/C: 30.6%
[8]
  viability, T/C: 32.4%
[27]
  viability, T/C: 38.1%
[28]
  viability, T/C: 36.4%
[9]
  viability, T/C: 66.8%
[10]
  viability, T/C: 43.5%
[11]
  viability, T/C: 30.4%
[12]
  viability, T/C: 40.1%
[29]
  viability, T/C: 33.2%
[30]
  viability, T/C: 34.4%
[13]
  viability, T/C: 75%
[14]
  viability, T/C: 39.8%
[15]
  viability, T/C: 36.8%
[16]
  viability, T/C: 34.3%
[31]
  viability, T/C: 36.1%
[32]
  viability, T/C: 49%
[17]
  viability, T/C: 72.8%
[18]
  viability, T/C: 52.5%
[19]
  viability, T/C: 35.3%
[20]
  viability, T/C: 31.8%
[33]
  viability, T/C: 34.1%
[34]
  viability, T/C: 41%
[21]
  viability, T/C: 98.8%
[22]
  viability, T/C: 67.9%
[23]
  viability, T/C: 68.8%
[24]
  viability, T/C: 34.8%
[35]
  viability, T/C: 31.7%
[36]
  viability, T/C: 30.6%

## O=c1[nH]cc(F)c(=O)[nH]1 + Nc1ccc(C#CCN(C(=O)Cc2ncc(C(F)(F)F)cc2C(F)(F)F)c2ccc(F)cc2)nn1
Second compound 0.0316 µM
  IC50: > 10 µM
Second compound 0.1 µM
  IC50: > 10 µM
Second compound 0.316 µM
  IC50: > 10 µM
Second compound 1 µM
  IC50: > 10 µM
Second compound 3.16 µM
  IC50: > 10 µM
Second compound 10 µM
  IC50: > 10 µM
[1]
  viability, T/C: 108%
[2]
  viability, T/C: 102%
[3]
  viability, T/C: 89.4%
[4]
  viability, T/C: 88.2%
[25]
  viability, T/C: 89.1%
[26]
  viability, T/C: 79.3%
[5]
  viability, T/C: 113%
[6]
  viability, T/C: 90.9%
[7]
  viability, T/C: 92.4%
[8]
  viability, T/C: 96.2%
[27]
  viability, T/C: 83.2%
[28]
  viability, T/C: 76.7%
[9]
  viability, T/C: 99.2%
[10]
  viability, T/C: 106%
[11]
  viability, T/C: 100%
[12]
  viability, T/C: 93.4%
[29]
  viability, T/C: 75.9%
[30]
  viability, T/C: 84.7%
[13]
  viability, T/C: 101%
[14]
  viability, T/C: 111%
[15]
  viability, T/C: 108%
[16]
  viability, T/C: 92.4%
[31]
  viability, T/C: 90.1%
[32]
  viability, T/C: 83.4%
[17]
  viability, T/C: 95%
[18]
  viability, T/C: 132%
[19]
  viability, T/C: 102%
[20]
  viability, T/C: 104%
[33]
  viability, T/C: 88.3%
[34]
  viability, T/C: 82.6%
[21]
  viability, T/C: 101%
[22]
  viability, T/C: 118%
[23]
  viability, T/C: 97.1%
[24]
  viability, T/C: 100%
[35]
  viability, T/C: 78.3%
[36]
  viability, T/C: 83.8%
